For assay [1], the system named is hypercholesterolemic mice. Description: Chronic low-dose Decitabine treatment: progression of aortic valve calcification and stenosis (cusp separation distance, echocardiography). It counts as in vivo, mouse. As to conditions: FIG. 8. The procedure: FIG. 8 is a graph plotting cusp separation distance in control mice and in mice treated with DAC (0.1 mg/kg i.p., 2 days/week for 3 months). […] Echocardiographic evaluation of aortic valve function: Echocardiographic evaluation of aortic valve function is conducted as described elsewhere (Miller et al. 2009, supra; Hinton et al., Am J Physiol Heart Circ Physiol 294:[…]-2488, 2008; Barrick et al., Am J Physiol Heart Circ Physiol 297:[…]-75, 2009; and Miller et al., Circ Res 108:1392-1412, 2011). In brief, a Vevo 2200 small animal ultrasound unit is used to evaluate 1) cusp separation distance from M-mode images, 2) peak transvalvular blood velocity, and 3) color Doppler screening for evidence of aortic valve regurgitation. […] Short- and long-axis views of the left ventricle also are acquired to evaluate ventricular function (Berry et al., J Cardiovasc Magn Reson 11:27, 2009).

The next assay relates to mouse aortic valves. Description: Acute Decitabine treatment of mice with established CAVD: gene expression in aortic valve tissue by quantitative real-time RT-PCR. It counts as in vivo. The settings on record: ldlr−/−/apoB100/100 (LA) mice on Western diet 6 months, 0.5 or 1 mg/kg/day i.p. for 5 days. The procedure: FIG. 5 is a pair of graphs plotting the effects of DNMT inhibition with decitabine (DAC) on expression of the pro-osteogenic signaling genes, Runx2 and osteopontin (SPP1), in mouse aortic valves in vivo. DAC was administered using daily intraperitoneal injections at the doses indicated (mg/kg/day) for 5 days, and gene expression was measured using quantitative real-time RT-PCR and mRNA isolated from mouse aortic valve tissue.
FIG. 6 is a graph plotting the effects of DNMT inhibition with DAC on expression of the anti-osteogenic gene, FABP4 (a PPARγ target). DAC was administered using daily intraperitoneal injections at the doses indicated (mg/kg/day) for 5 days, and gene expression was measured using quantitative real-time RT-PCR and mRNA isolated from mouse aortic valve tissue.
To determine whether acute DNA methyltransferase inhibition promotes anti-calcific gene expression patterns in mice with established calcific aortic valve disease, ldlr^−/−/apoB^100/100 (LA) mice were placed on a Western diet for 6 months (which produces mild to moderate valvular dysfunction), and treated with vehicle or Decitabine (5-aza-2′-deoxycytidine; “DAC”) for 5 days (0.5 or 1 mg/kg/day, i.p.). Changes in cardiac and aortic valve function at 3 and 6 months are evaluated. […] The second group is used for semi-quantitative histological/immunohistochemical evaluation of aortic valve (n=10). The third group is used for genome-wide evaluation of gene expression using microarrays (n=20), and the fourth group is used for high-resolution μCT scanning for quantitation of calcium burden in aortic valve and root (n=15).
Quantitative Real-Time RT-PCR: Aortic valve cusps are dissected, and tissue is processed and stored using commercially available lysis buffer with β-mercaptoethanol (Miller et al., Am J Physiol Heart Circ Physiol 298:H1600-1607, 2010). Quantitative real-time RT-PCR studies confirming array-detected changes in gene expression are performed on a StepOne Plus instrument (Applied Biosystems).
Background: Real-time PCR tracks product formation cycle by cycle.

For assay [2], the system named is pig aortic valve interstitial cells. Description: Calcium deposition in aortic valve interstitial cells in vitro. It counts as cell-based. The settings on record: FIG. 7. From the text:
FIG. 7 is a graph plotting the effects of DNMT inhibition with DAC calcium deposition in pig aortic valve interstitial cells in vitro.

`Nc1ncn([C@H]2C[C@H](O)[C@@H](CO)O2)c(=O)n1` [Decitabine, 5-Aza-2′-deoxycytidine]: in assay [1] (0.1 mg/kg i.p., 2 days/week for 3 months, larger cusp separation distance = improved valve function), the “progression of aortic valve stenosis (cusp separation distance)” value is “slowed progression of aortic valve stenosis”. Also, the “progression of aortic valve calcification and stenosis” value in assay [1] (low-dose, hypercholesterolemic mice in vivo) is reported as “successfully slowed progression”. Also, the Sp7 expression entry with mouse aortic valves is recorded as “dose-dependent reductions”. Further, the Runx2 expression entry in the assay with mouse aortic valves (FIG. 5) is reported as “dose-dependent reductions”. Besides, the “PPARγ target gene expression (e.g., FABP4)” value with mouse aortic valves (FIG. 6) is listed as “increased PPARγ target gene expression”. Also, in assay [2], the “calcification in aortic valve interstitial cells” value is listed as “reduced calcification”.
